Key:
Experiment in all cases: relative viability (nuclei count vs DMSO), 5 days (fraction); higher = more cells survive
[1] = test system: ChaGo-K-1
Procedure, shortened: (§1)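 Each reported value is a median over duplicate plates. It expresses relative viability: treated-well nuclei count divided by vehicle-well nuclei count. Lung cancer cell lines in 1536-well plates were dosed by pin tool a day after seeding, alone with one drug or with a fixed anchor-drug dose plus five library-drug doses (not always all listed) in √10 steps, and nuclei were counted after 5 days.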

[2] = test system: EPLC-272H
Procedure, shortened: as §1

[3] = test system: H3255
Procedure, shortened: as §1

[4] = test system: HARA
Procedure, shortened: as §1

[5] = test system: HCC-78
Procedure, shortened: as §1

[6] = test system: HOP-62
Procedure, shortened: as §1

[7] = test system: LCLC-97TM1
Procedure, shortened: as §1

[8] = test system: LXF-289
Procedure, shortened: as §1

[9] = test system: NCI-H1395
Procedure, shortened: as §1

[10] = test system: NCI-H1437
Procedure, shortened: as §1

[11] = test system: NCI-H1666
Procedure, shortened: as §1

[12] = test system: NCI-H1793
Procedure, shortened: as §1

[13] = test system: NCI-H1944
Procedure, shortened: as §1

[14] = test system: NCI-H2085
Procedure, shortened: as §1

[15] = test system: NCI-H2087
Procedure, shortened: as §1

[16] = test system: NCI-H2126
Procedure, shortened: as §1

[17] = test system: NCI-H3122
Procedure, shortened: as §1

[18] = test system: NCI-H441
Procedure, shortened: as §1

[19] = test system: NCI-H596
Procedure, shortened: as §1

[20] = test system: PC-14
Procedure, shortened: as §1

Q: `Cc1cn(-c2cc(NC(=O)c3ccc(C)c(Nc4nccc(-c5cccnc5)n4)c3)cc(C(F)(F)F)c2)cn1` [Nilotinib] + NC(=O)Nc1cc(-c2cccc(F)c2)sc1C(=O)N[C@H]1CCCNC1 [AZD7762] (partner 0.2 µM) was tested. Which relative viability ([1]; first compound 0.001 µM) did it give?
A: The relative viability was 0.884.

Q: What about the relative viability ([1]; first compound 0.003162 µM) of the same compound?
A: The relative viability was 0.975.

Q: What about the relative viability ([1]; first compound 0.01 µM) of the same compound?
A: Its relative viability is 0.853.

Q: What about the relative viability ([1]; first compound 0.03162 µM) of the same compound?
A: Its relative viability is 0.638.

Q: What about the relative viability ([1]; first compound 0.1 µM) of the same compound?
A: The relative viability was 0.344.

Q: And the relative viability ([2]; first compound 0.001 µM)?
A: The relative viability was 0.267.

Q: What about the relative viability ([2]; first compound 0.003162 µM) of the same compound?
A: Its relative viability is 0.13.

Q: And the relative viability ([2]; first compound 0.01 µM)?
A: Its relative viability is 0.164.

Q: What about the relative viability ([2]; first compound 0.03162 µM) of the same compound?
A: Its relative viability is 0.186.

Q: And the relative viability ([2]; first compound 0.1 µM)?
A: The relative viability was 0.198.

Q: And the relative viability ([3]; first compound 0.001 µM)?
A: Its relative viability is 0.827.

Q: And the relative viability ([3]; first compound 0.003162 µM)?
A: Its relative viability is 0.65.

Q: And the relative viability ([3]; first compound 0.01 µM)?
A: The relative viability was 0.908.

Q: And the relative viability ([3]; first compound 0.03162 µM)?
A: Its relative viability is 0.811.

Q: What about the relative viability ([3]; first compound 0.1 µM) of the same compound?
A: Its relative viability is 0.733.

Q: And the relative viability ([4]; first compound 0.001 µM)?
A: Its relative viability is 0.329.

Q: And the relative viability ([4]; first compound 0.003162 µM)?
A: Its relative viability is 0.208.

Q: What about the relative viability ([4]; first compound 0.01 µM) of the same compound?
A: The relative viability was 0.536.

Q: And the relative viability ([4]; first compound 0.03162 µM)?
A: Its relative viability is 0.197.

Q: And the relative viability ([4]; first compound 0.1 µM)?
A: Its relative viability is 0.245.

Q: And the relative viability ([5]; first compound 0.001 µM)?
A: The relative viability was 0.668.

Q: And the relative viability ([5]; first compound 0.003162 µM)?
A: Its relative viability is 0.442.

Q: And the relative viability ([5]; first compound 0.01 µM)?
A: Its relative viability is 0.725.

Q: What about the relative viability ([5]; first compound 0.03162 µM) of the same compound?
A: Its relative viability is 0.58.

Q: And the relative viability ([5]; first compound 0.1 µM)?
A: The relative viability was 0.628.

Q: What about the relative viability ([6]; first compound 0.001 µM) of the same compound?
A: The relative viability was 0.57.

Q: What about the relative viability ([6]; first compound 0.003162 µM) of the same compound?
A: The relative viability was 0.549.

Q: And the relative viability ([6]; first compound 0.01 µM)?
A: Its relative viability is 0.595.

Q: What about the relative viability ([6]; first compound 0.03162 µM) of the same compound?
A: The relative viability was 0.271.

Q: What about the relative viability ([7]; first compound 0.003162 µM) of the same compound?
A: Its relative viability is 0.366.

Q: What about the relative viability ([7]; first compound 0.1 µM) of the same compound?
A: Its relative viability is 0.0966.

Q: And the relative viability ([8]; first compound 0.001 µM)?
A: The relative viability was 1.03.

Q: What about the relative viability ([8]; first compound 0.003162 µM) of the same compound?
A: Its relative viability is 1.2.

Q: What about the relative viability ([8]; first compound 0.01 µM) of the same compound?
A: The relative viability was 1.21.

Q: And the relative viability ([8]; first compound 0.03162 µM)?
A: Its relative viability is 1.08.

Q: And the relative viability ([8]; first compound 0.1 µM)?
A: The relative viability was 0.642.

Q: What about the relative viability ([9]; first compound 0.001 µM) of the same compound?
A: Its relative viability is 0.4.

Q: And the relative viability ([9]; first compound 0.01 µM)?
A: Its relative viability is 0.37.

Q: And the relative viability ([9]; first compound 0.03162 µM)?
A: The relative viability was 0.361.

Q: And the relative viability ([9]; first compound 0.1 µM)?
A: Its relative viability is 0.362.

Q: And the relative viability ([10]; first compound 0.001 µM)?
A: The relative viability was 1.16.

Q: What about the relative viability ([10]; first compound 0.003162 µM) of the same compound?
A: Its relative viability is 0.888.

Q: And the relative viability ([10]; first compound 0.01 µM)?
A: The relative viability was 1.12.

Q: What about the relative viability ([10]; first compound 0.03162 µM) of the same compound?
A: Its relative viability is 0.899.

Q: And the relative viability ([10]; first compound 0.1 µM)?
A: The relative viability was 1.1.

Q: And the relative viability ([11]; first compound 0.001 µM)?
A: The relative viability was 0.78.

Q: What about the relative viability ([11]; first compound 0.01 µM) of the same compound?
A: The relative viability was 0.855.

Q: And the relative viability ([11]; first compound 0.03162 µM)?
A: The relative viability was 0.74.

Q: And the relative viability ([11]; first compound 0.1 µM)?
A: Its relative viability is 0.724.

Q: What about the relative viability ([12]; first compound 0.001 µM) of the same compound?
A: Its relative viability is 0.388.

Q: And the relative viability ([12]; first compound 0.003162 µM)?
A: The relative viability was 0.318.

Q: What about the relative viability ([12]; first compound 0.01 µM) of the same compound?
A: Its relative viability is 0.303.

Q: And the relative viability ([12]; first compound 0.03162 µM)?
A: Its relative viability is 0.243.

Q: And the relative viability ([12]; first compound 0.1 µM)?
A: Its relative viability is 0.146.

Q: What about the relative viability ([13]; first compound 0.001 µM) of the same compound?
A: The relative viability was 0.436.

Q: What about the relative viability ([13]; first compound 0.003162 µM) of the same compound?
A: Its relative viability is 0.75.

Q: And the relative viability ([13]; first compound 0.01 µM)?
A: Its relative viability is 0.41.

Q: And the relative viability ([13]; first compound 0.03162 µM)?
A: The relative viability was 0.285.

Q: And the relative viability ([13]; first compound 0.1 µM)?
A: Its relative viability is 0.299.

Q: And the relative viability ([14]; first compound 0.001 µM)?
A: Its relative viability is 0.978.

Q: What about the relative viability ([14]; first compound 0.003162 µM) of the same compound?
A: The relative viability was 0.942.

Q: And the relative viability ([14]; first compound 0.01 µM)?
A: Its relative viability is 1.03.

Q: What about the relative viability ([14]; first compound 0.03162 µM) of the same compound?
A: Its relative viability is 0.793.

Q: And the relative viability ([14]; first compound 0.1 µM)?
A: The relative viability was 0.527.

Q: What about the relative viability ([15]; first compound 0.001 µM) of the same compound?
A: The relative viability was 0.828.

Q: What about the relative viability ([15]; first compound 0.003162 µM) of the same compound?
A: The relative viability was 1.58.

Q: What about the relative viability ([15]; first compound 0.01 µM) of the same compound?
A: The relative viability was 1.98.

Q: And the relative viability ([15]; first compound 0.03162 µM)?
A: Its relative viability is 0.86.

Q: What about the relative viability ([15]; first compound 0.1 µM) of the same compound?
A: The relative viability was 0.893.

Q: What about the relative viability ([16]; first compound 0.001 µM) of the same compound?
A: The relative viability was 0.965.

Q: And the relative viability ([16]; first compound 0.003162 µM)?
A: Its relative viability is 1.14.

Q: And the relative viability ([16]; first compound 0.01 µM)?
A: The relative viability was 1.06.

Q: And the relative viability ([16]; first compound 0.03162 µM)?
A: The relative viability was 0.962.

Q: What about the relative viability ([16]; first compound 0.1 µM) of the same compound?
A: The relative viability was 0.606.

Q: And the relative viability ([17]; first compound 0.001 µM)?
A: The relative viability was 0.965.

Q: What about the relative viability ([17]; first compound 0.003162 µM) of the same compound?
A: The relative viability was 1.24.

Q: And the relative viability ([17]; first compound 0.01 µM)?
A: Its relative viability is 1.37.

Q: And the relative viability ([17]; first compound 0.03162 µM)?
A: Its relative viability is 0.967.

Q: And the relative viability ([17]; first compound 0.1 µM)?
A: The relative viability was 0.382.

Q: What about the relative viability ([18]; first compound 0.001 µM) of the same compound?
A: Its relative viability is 1.08.

Q: What about the relative viability ([18]; first compound 0.003162 µM) of the same compound?
A: Its relative viability is 1.21.

Q: What about the relative viability ([18]; first compound 0.01 µM) of the same compound?
A: The relative viability was 1.19.

Q: What about the relative viability ([18]; first compound 0.03162 µM) of the same compound?
A: The relative viability was 0.714.

Q: What about the relative viability ([18]; first compound 0.1 µM) of the same compound?
A: The relative viability was 0.565.

Q: What about the relative viability ([19]; first compound 0.001 µM) of the same compound?
A: Its relative viability is 1.11.

Q: And the relative viability ([19]; first compound 0.003162 µM)?
A: Its relative viability is 1.02.

Q: And the relative viability ([19]; first compound 0.01 µM)?
A: The relative viability was 1.11.

Q: And the relative viability ([19]; first compound 0.03162 µM)?
A: Its relative viability is 1.13.

Q: What about the relative viability ([19]; first compound 0.1 µM) of the same compound?
A: The relative viability was 1.01.

Q: And the relative viability ([20]; first compound 0.001 µM)?
A: The relative viability was 0.359.

Q: And the relative viability ([20]; first compound 0.003162 µM)?
A: Its relative viability is 0.285.

Q: What about the relative viability ([20]; first compound 0.01 µM) of the same compound?
A: The relative viability was 0.399.

Q: What about the relative viability ([20]; first compound 0.03162 µM) of the same compound?
A: Its relative viability is 0.305.

— the supplement of paper PMC10307832
